# Like-named read-outs stand apart in the source and are kept apart here. Bridge positions count the residues as written; N and C are the ends. Square brackets hold non-standard residues; d marks the D form. Peptide text beside a SMILES is read from it. Trp(1-Me) = Cn1cc(C[C@H](N)C(=O)O)c2ccccc21; NMeI = CC[C@H](C)[C@H](NC)C(=O)O; Orn = NCCC[C@H](N)C(=O)O; Sar = CNCC(=O)O
# Biological target: T1, C3b (Homo sapiens, UniProt P01024)
# T1 construct: Biotinylated C3b was captured site-specifically on a streptavidin chip
# T1 sequence (P01024 23-667 limits assumed): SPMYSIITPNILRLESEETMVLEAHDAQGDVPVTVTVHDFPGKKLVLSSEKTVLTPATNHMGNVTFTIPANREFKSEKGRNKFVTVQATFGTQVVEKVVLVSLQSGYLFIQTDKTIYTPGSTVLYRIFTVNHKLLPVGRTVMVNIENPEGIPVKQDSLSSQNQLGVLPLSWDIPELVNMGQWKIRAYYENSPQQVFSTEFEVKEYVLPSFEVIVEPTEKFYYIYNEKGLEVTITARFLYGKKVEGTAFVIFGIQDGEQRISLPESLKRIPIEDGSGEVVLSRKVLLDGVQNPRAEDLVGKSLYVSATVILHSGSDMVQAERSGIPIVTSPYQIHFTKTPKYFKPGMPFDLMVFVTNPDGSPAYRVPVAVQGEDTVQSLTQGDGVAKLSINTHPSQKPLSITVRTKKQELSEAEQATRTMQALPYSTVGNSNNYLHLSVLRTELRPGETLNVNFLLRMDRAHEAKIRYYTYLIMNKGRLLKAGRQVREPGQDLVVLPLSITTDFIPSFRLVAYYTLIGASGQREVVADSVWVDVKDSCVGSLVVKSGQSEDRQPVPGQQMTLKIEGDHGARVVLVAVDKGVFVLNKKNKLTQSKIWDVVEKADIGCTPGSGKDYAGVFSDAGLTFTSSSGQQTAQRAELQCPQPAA
# T1 sequence (P01024 749-1663 partner limits assumed): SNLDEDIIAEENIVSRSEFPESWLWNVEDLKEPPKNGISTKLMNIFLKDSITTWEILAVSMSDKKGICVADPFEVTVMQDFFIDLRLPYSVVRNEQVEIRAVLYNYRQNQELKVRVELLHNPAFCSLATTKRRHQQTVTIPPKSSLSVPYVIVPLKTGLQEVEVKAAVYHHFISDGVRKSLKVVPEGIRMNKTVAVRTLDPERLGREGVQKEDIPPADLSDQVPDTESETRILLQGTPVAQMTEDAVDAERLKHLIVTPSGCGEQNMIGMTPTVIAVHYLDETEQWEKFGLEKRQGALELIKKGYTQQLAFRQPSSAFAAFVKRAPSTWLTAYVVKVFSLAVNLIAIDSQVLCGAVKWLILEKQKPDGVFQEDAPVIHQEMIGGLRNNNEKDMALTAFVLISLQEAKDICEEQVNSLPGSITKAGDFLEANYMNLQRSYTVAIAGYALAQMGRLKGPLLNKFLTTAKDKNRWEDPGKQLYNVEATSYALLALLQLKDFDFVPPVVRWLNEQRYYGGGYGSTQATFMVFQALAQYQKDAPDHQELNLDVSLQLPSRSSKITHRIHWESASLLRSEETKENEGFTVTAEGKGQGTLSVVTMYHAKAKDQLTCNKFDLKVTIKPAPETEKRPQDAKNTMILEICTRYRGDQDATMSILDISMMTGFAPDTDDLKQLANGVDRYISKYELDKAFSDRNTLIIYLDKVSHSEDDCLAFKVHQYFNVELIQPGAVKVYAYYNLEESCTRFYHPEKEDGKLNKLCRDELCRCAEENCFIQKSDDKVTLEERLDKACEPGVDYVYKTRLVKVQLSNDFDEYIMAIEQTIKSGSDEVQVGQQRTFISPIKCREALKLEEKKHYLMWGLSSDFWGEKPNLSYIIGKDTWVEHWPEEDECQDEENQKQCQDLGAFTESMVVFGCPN
# Assay: SPR kinetic analysis of binding to immobilized C3b (Biacore, single cycle kinetics)
# Settings: for Kd: read-out: KD: binding constant from SPR; for koff: read-out: kd: dissociation rate
# Protocol: SPR analysis. The interaction of the compstatin analogs with C3b was characterized using a Biacore 3000 instrument (GE Healthcare, Corp., Piscataway, N.J.). The running buffer was PBS, pH 7.4 (10 mM sodium phosphate, 150 mM NaCl) with 0.005% Tween-20. Biotinylated C3b was captured site-specifically on a streptavidin chip at about 3000 and 5000 RU density; two untreated flow cells were used as reference surface. For kinetic analysis, sets of five increasing concentrations of a particular compound were injected over the chip surface one after the other in a single cycle. […] Processed biosensor data were globally fitted to a 1:1 Langmuir binding model (kindly provided by GE Helthcare), and the equilibrium dissociation constant (KD) was calculated from the equation KD=kd/ka. Each assay was performed at least twice.
"ka: association rate (Table 2, Cp40-based analogs)","Kd (Table 2, Cp40-based analogs)","koff (Table 2, Cp40-based analogs)",SMILES,"ka: association rate (Table 1, N-terminal analogs)","Kd (Table 1, N-terminal analogs)","koff (Table 1, N-terminal analogs)"
,,,CC[C@H](C)[C@H](NC(=O)[C@H](N)Cc1c[nH]c2ccccc12)C(=O)N[C@H]1CSSC[C@@H](C(=O)N(C)[C@H](C(N)=O)[C@@H](C)CC)NC(=O)[C@H](CCCNC(=N)N)NC(=O)[C@H](Cc2c[nH]cn2)NC(=O)[C@H](C)NC(=O)CN(C)C(=O)[C@H](Cc2c[nH]c3ccccc23)NC(=O)[C@H](CC(=O)O)NC(=O)[C@H](CCC(N)=O)NC(=O)[C@H](Cc2cn(C)c3ccccc23)NC(=O)[C@H](C(C)C)NC1=O [compound 16],2.0 ± 0.2 10^6/Ms,,
0.9 ± 0.1 10^6/Ms,3 ± 0.4 nM,0.0028 ± 0.0001 s⁻¹,CC[C@H](C)[C@H](NC(=O)[C@H](N)Cc1ccc(O)cc1)C(=O)N[C@H]1CSSC[C@@H](C(=O)N(C)[C@H](C(N)=O)[C@@H](C)CC)NC(=O)[C@H](CCCNC(=N)N)NC(=O)[C@H](Cc2c[nH]cn2)NC(=O)[C@H](C)NC(=O)CN(C)C(=O)[C@H](Cc2c[nH]c3ccccc23)NC(=O)[C@H](CC(N)=O)NC(=O)[C@H](CCC(N)=O)NC(=O)[C@H](Cc2cn(C)c3ccccc23)NC(=O)[C@H](C(C)C)NC1=O [Cp40 (6Asn)] (H-[dY]ICV[Trp(1-Me)]QNW[Sar]AHRC[NMeI]-NH2; disulfide 3-13),,,
2.0 ± 0.4 10^6/Ms,1.5 ± 0.4 nM,0.0028 ± 0.0006 s⁻¹,CC[C@H](C)[C@H](NC(=O)[C@H](N)Cc1ccc(O)cc1)C(=O)N[C@H]1CSSC[C@@H](C(=O)N(C)[C@H](C(N)=O)[C@@H](C)CC)NC(=O)[C@H](CCCN)NC(=O)[C@H](Cc2c[nH]cn2)NC(=O)[C@H](C)NC(=O)CN(C)C(=O)[C@H](Cc2c[nH]c3ccccc23)NC(=O)[C@H](CC(N)=O)NC(=O)[C@H](CCC(N)=O)NC(=O)[C@H](Cc2cn(C)c3ccccc23)NC(=O)[C@H](C(C)C)NC1=O [Cp40 (11Orn 6Asn)] (H-[dY]ICV[Trp(1-Me)]QNW[Sar]AH[Orn]C[NMeI]-NH2; disulfide 3-13),,,
2.5 ± 0.1 10^6/Ms,0.8 ± 0.1 nM,0.002 ± 0.0001 s⁻¹,CC[C@H](C)[C@H](NC(=O)[C@H](N)Cc1ccc(O)cc1)C(=O)N[C@H]1CSSC[C@@H](C(=O)N(C)[C@H](C(N)=O)[C@@H](C)CC)NC(=O)[C@H](CCCN)NC(=O)[C@H](Cc2c[nH]cn2)NC(=O)[C@H](C)NC(=O)CN(C)C(=O)[C@H](Cc2c[nH]c3ccccc23)NC(=O)[C@H](CC(=O)O)NC(=O)[C@H](CCC(N)=O)NC(=O)[C@H](Cc2cn(C)c3ccccc23)NC(=O)[C@H](C(C)C)NC1=O [Cp40 (11Orn)] (H-[dY]ICV[Trp(1-Me)]QDW[Sar]AH[Orn]C[NMeI]-NH2; disulfide 3-13),,,
,,,CC[C@H](C)[C@H](NC(=O)[C@H](C)NC)C(=O)N[C@H]1CSSC[C@@H](C(=O)N(C)[C@H](C(N)=O)[C@@H](C)CC)NC(=O)[C@H](CCCNC(=N)N)NC(=O)[C@H](Cc2c[nH]cn2)NC(=O)[C@H](C)NC(=O)CN(C)C(=O)[C@H](Cc2c[nH]c3ccccc23)NC(=O)[C@H](CC(=O)O)NC(=O)[C@H](CCC(N)=O)NC(=O)[C@H](Cc2cn(C)c3ccccc23)NC(=O)[C@H](C(C)C)NC1=O [compound 13],1.4 ± 0.2 10^6/Ms,2.5 ± 0.6 nM,0.0034 ± 0.0003 s⁻¹
,,,CC[C@H](C)[C@H](NC(=O)[C@H](Cc1ccccc1)NC)C(=O)N[C@H]1CSSC[C@@H](C(=O)N(C)[C@H](C(N)=O)[C@@H](C)CC)NC(=O)[C@H](CCCNC(=N)N)NC(=O)[C@H](Cc2c[nH]cn2)NC(=O)[C@H](C)NC(=O)CN(C)C(=O)[C@H](Cc2c[nH]c3ccccc23)NC(=O)[C@H](CC(=O)O)NC(=O)[C@H](CCC(N)=O)NC(=O)[C@H](Cc2cn(C)c3ccccc23)NC(=O)[C@H](C(C)C)NC1=O [compound 10],1.6 ± 0.2 10^6/Ms,1.8 ± 0.3 nM,0.0029 ± 0.0003 s⁻¹
,,,CC[C@H](C)[C@H](NC(=O)[C@H](N)CC1CCCCC1)C(=O)N[C@H]1CSSC[C@@H](C(=O)N(C)[C@H](C(N)=O)[C@@H](C)CC)NC(=O)[C@H](CCCNC(=N)N)NC(=O)[C@H](Cc2c[nH]cn2)NC(=O)[C@H](C)NC(=O)CN(C)C(=O)[C@H](Cc2c[nH]c3ccccc23)NC(=O)[C@H](CC(=O)O)NC(=O)[C@H](CCC(N)=O)NC(=O)[C@H](Cc2cn(C)c3ccccc23)NC(=O)[C@H](C(C)C)NC1=O [compound 17],1.8 ± 0.5 10^6/Ms,1.5 ± 0.2 nM,0.0027 ± 0.0004 s⁻¹
,,,CC[C@H](C)[C@H](NC(=O)[C@@H](C)N)C(=O)N[C@H]1CSSC[C@@H](C(=O)N(C)[C@H](C(N)=O)[C@@H](C)CC)NC(=O)[C@H](CCCNC(=N)N)NC(=O)[C@H](Cc2c[nH]cn2)NC(=O)[C@H](C)NC(=O)CN(C)C(=O)[C@H](Cc2c[nH]c3ccccc23)NC(=O)[C@H](CC(=O)O)NC(=O)[C@H](CCC(N)=O)NC(=O)[C@H](Cc2cn(C)c3ccccc23)NC(=O)[C@H](C(C)C)NC1=O [compound 18],1.4 ± 0.3 10^6/Ms,2.5 ± 0.4 nM,0.0034 ± 0.0004 s⁻¹
,,,CC[C@H](C)[C@H](NC(=O)[C@@H](N)Cc1ccc(OC)cc1)C(=O)N[C@H]1CSSC[C@@H](C(=O)N(C)[C@H](C(N)=O)[C@@H](C)CC)NC(=O)[C@H](CCCNC(=N)N)NC(=O)[C@H](Cc2c[nH]cn2)NC(=O)[C@H](C)NC(=O)CN(C)C(=O)[C@H](Cc2c[nH]c3ccccc23)NC(=O)[C@H](CC(=O)O)NC(=O)[C@H](CCC(N)=O)NC(=O)[C@H](Cc2cn(C)c3ccccc23)NC(=O)[C@H](C(C)C)NC1=O [compound 9],2.3 ± 0.4 10^6/Ms,,
,,,CC[C@H](C)[C@H](NC(=O)[C@@H](N)Cc1ccccc1)C(=O)N[C@H]1CSSC[C@@H](C(=O)N(C)[C@H](C(N)=O)[C@@H](C)CC)NC(=O)[C@H](CCCNC(=N)N)NC(=O)[C@H](Cc2c[nH]cn2)NC(=O)[C@H](C)NC(=O)CN(C)C(=O)[C@H](Cc2c[nH]c3ccccc23)NC(=O)[C@H](CC(=O)O)NC(=O)[C@H](CCC(N)=O)NC(=O)[C@H](Cc2cn(C)c3ccccc23)NC(=O)[C@H](C(C)C)NC1=O [compound 5] (H-FICV[Trp(1-Me)]QDW[Sar]AHRC[NMeI]-NH2; disulfide 3-13),2.1 ± 0.4 10^6/Ms,1.6 ± 0.2 nM,0.0033 ± 0.0003 s⁻¹
,,,CC[C@H](C)[C@H](NC(=O)[C@@H](NC)C(C)C)C(=O)N[C@H]1CSSC[C@@H](C(=O)N(C)[C@H](C(N)=O)[C@@H](C)CC)NC(=O)[C@H](CCCNC(=N)N)NC(=O)[C@H](Cc2c[nH]cn2)NC(=O)[C@H](C)NC(=O)CN(C)C(=O)[C@H](Cc2c[nH]c3ccccc23)NC(=O)[C@H](CC(=O)O)NC(=O)[C@H](CCC(N)=O)NC(=O)[C@H](Cc2cn(C)c3ccccc23)NC(=O)[C@H](C(C)C)NC1=O [compound 11],1.8 ± 0.3 10^6/Ms,1.9 ± 0.1 nM,0.0035 ± 0.0006 s⁻¹
,,,CC[C@H](C)[C@H](NC(=O)[C@H](N)Cc1ccccc1)C(=O)N[C@H]1CSSC[C@@H](C(=O)N(C)[C@H](C(N)=O)[C@@H](C)CC)NC(=O)[C@H](CCCNC(=N)N)NC(=O)[C@H](Cc2c[nH]cn2)NC(=O)[C@H](C)NC(=O)CN(C)C(=O)[C@H](Cc2c[nH]c3ccccc23)NC(=O)[C@H](CC(=O)O)NC(=O)[C@H](CCC(N)=O)NC(=O)[C@H](Cc2cn(C)c3ccccc23)NC(=O)[C@H](C(C)C)NC1=O [compound 15],2.3 ± 0.3 10^6/Ms,1.1 ± 0.1 nM,0.0026 s⁻¹
,,,CC[C@H](C)[C@H](NC(=O)[C@@H](N)[C@@H](C)O)C(=O)N[C@H]1CSSC[C@@H](C(=O)N(C)[C@H](C(N)=O)[C@@H](C)CC)NC(=O)[C@H](CCCNC(=N)N)NC(=O)[C@H](Cc2c[nH]cn2)NC(=O)[C@H](C)NC(=O)CN(C)C(=O)[C@H](Cc2c[nH]c3ccccc23)NC(=O)[C@H](CC(=O)O)NC(=O)[C@H](CCC(N)=O)NC(=O)[C@H](Cc2cn(C)c3ccccc23)NC(=O)[C@H](C(C)C)NC1=O [compound 8] (H-TICV[Trp(1-Me)]QDW[Sar]AHRC[NMeI]-NH2; disulfide 3-13),1.2 ± 0.1 10^6/Ms,2.6 ± 0.3 nM,0.0031 ± 0.0002 s⁻¹
,,,CC[C@H](C)[C@H](NC(=O)[C@@H](N)CCCNC(=N)N)C(=O)N[C@H]1CSSC[C@@H](C(=O)N(C)[C@H](C(N)=O)[C@@H](C)CC)NC(=O)[C@H](CCCNC(=N)N)NC(=O)[C@H](Cc2c[nH]cn2)NC(=O)[C@H](C)NC(=O)CN(C)C(=O)[C@H](Cc2c[nH]c3ccccc23)NC(=O)[C@H](CC(=O)O)NC(=O)[C@H](CCC(N)=O)NC(=O)[C@H](Cc2cn(C)c3ccccc23)NC(=O)[C@H](C(C)C)NC1=O [compound 6] (H-RICV[Trp(1-Me)]QDW[Sar]AHRC[NMeI]-NH2; disulfide 3-13),1.7 ± 0.2 10^6/Ms,1.7 ± 0.2 nM,0.0029 ± 0.0002 s⁻¹
,,,CC[C@H](C)[C@H](NC)C(=O)N[C@H](C(=O)N[C@H]1CSSC[C@@H](C(=O)N(C)[C@H](C(N)=O)[C@@H](C)CC)NC(=O)[C@H](CCCNC(=N)N)NC(=O)[C@H](Cc2c[nH]cn2)NC(=O)[C@H](C)NC(=O)CN(C)C(=O)[C@H](Cc2c[nH]c3ccccc23)NC(=O)[C@H](CC(=O)O)NC(=O)[C@H](CCC(N)=O)NC(=O)[C@H](Cc2cn(C)c3ccccc23)NC(=O)[C@H](C(C)C)NC1=O)[C@@H](C)CC [compound 12],1.6 ± 0.2 10^6/Ms,2.4 ± 0.5 nM,0.0037 ± 0.0003 s⁻¹
,,,CC[C@H](C)[C@@H](C(N)=O)N(C)C(=O)[C@@H]1CSSC[C@H](NC(=O)CNC(=O)[C@@H](N)Cc2ccc(O)cc2)C(=O)N[C@@H](C(C)C)C(=O)N[C@@H](Cc2cn(C)c3ccccc23)C(=O)N[C@@H](CCC(N)=O)C(=O)N[C@@H](CC(=O)O)C(=O)N[C@@H](Cc2c[nH]c3ccccc23)C(=O)N(C)CC(=O)N[C@@H](C)C(=O)N[C@@H](Cc2c[nH]cn2)C(=O)N[C@@H](CCCNC(=N)N)C(=O)N1 [peptide 20] (H-YGCV[Trp(1-Me)]QDW[Sar]AHRC[NMeI]-NH2; disulfide 3-13),2.1 ± 0.3 10^6/Ms,3.5 ± 0.3 nM,0.0073 ± 0.0014 s⁻¹

# Reference: patent US20210032291A1, “Compstatin Analogs With Improved Pharmacokinetic Properties” (The Trustees of the University of Pennsylvania, priority 2011, published 2021)
